{"source": "ChEMBL document CHEMBL1240432", "about": "“Synthesis and preliminary bioactivity assays of 3,4-dichloro-5-(omega-hydroxyalkylamino)-2(5H)-furanones” (Eur J Med Chem, 2010)", "key": {"Plasmodium falciparum": {"system": "Plasmodium falciparum", "assay": "Antiprotozoal activity against Plasmodium falciparum K1 infected in human erythrocytes at 4.8 ug/m after 72 hrs by [3H]hypoxanthine incorporation", "type": "functional"}, "Leishmania donovani": {"system": "Leishmania donovani", "assay": "Antiprotozoal activity against Leishmania donovani MHOM/ET/67/L82 at 4.8 ug/m after 72 hrs by fluorimetry", "type": "functional"}, "[1]": {"system": "Mycobacterium tuberculosis", "assay": "Antitubercular activity against Mycobacterium tuberculosis H37Rv by microplate alamar blue assay", "type": "functional, organism-based"}, "Trypanosoma cruzi": {"system": "Trypanosoma cruzi", "assay": "Antiprotozoal activity against Trypanosoma cruzi Tulahuen C2C4 infected in rat skeletal myoblast at 4.8 ug/ml after 48 hrs", "type": "functional", "conditions": "Tulahuen C2C4, 48 h"}, "[2]": {"system": "Trypanosoma brucei rhodesiense", "assay": "Antiprotozoal activity against Trypanosoma brucei rhodesiense STIB900 at 4.8 ug/mL by microplate alamar blue assay", "type": "functional"}}}
{"smiles": "C[C@@H]1CC[C@H]2[C@@H](C)C(=O)O[C@@H]3O[C@@]4(C)CC[C@@H]1[C@]32OO4", "note": "[ARTEMISININ]", "values": [{"measurement": "inhibition (INH)", "setting": "Plasmodium falciparum", "result": 100, "unit": "%"}]}
{"smiles": "CCCCCCCCCCCCCCCCOP(=O)([O-])OCC[N+](C)(C)C", "note": "[MILTEFOSINE]", "values": [{"measurement": "inhibition (INH)", "setting": "Leishmania donovani", "result": 92.5, "unit": "%"}]}
{"smiles": "O=C1OC(NCC(O)CO)C(Cl)=C1Cl", "note": "(stereo unspecified)", "values": [{"measurement": "IC50", "setting": "[1]", "result": "> 100", "unit": "µg/mL"}, {"measurement": "IC90", "setting": "[1]", "result": "> 100", "unit": "µg/mL"}]}
{"smiles": "O=C(Cn1ccnc1[N+](=O)[O-])NCc1ccccc1", "note": "[BENZNIDAZOLE]", "values": [{"measurement": "inhibition at 4.8 µg/mL", "setting": "Trypanosoma cruzi", "result": 89.6, "unit": "%"}]}
{"smiles": "Nc1nc(N)nc(Nc2ccc([As]3SCC(CO)S3)cc2)n1", "note": "(stereo unspecified) [MELARSOPROL]", "values": [{"measurement": "inhibition at 4.8 µg/mL", "setting": "[2]", "result": 98.2, "unit": "%"}]}
